The source made the active and inactive calls. The calls are words filed in the database; no cut-off is given here.
Assays:
[1] = system: Mus musculus; assay: (§1) Neuroprotective activity against 6-OHDA-induced lesioned C57 mouse model of Parkinson's disease assessed as increase in survival of ipsilateral dopaminergic neuron in caudate putamen nucleus of brain by measuring tyrosine hydroxylase fluorescence intensity administered via right striatum and measured after 21 days by immunofluorescence staining analysis (reference value: 11.5 %); type: functional; details: time 21 day
[2] = system: H4; assay: (§2) Antioxidant activity in H2O2-induced human H4 cells assessed as reduction in ROS generation ratio preincubated with H2O2 for 3 hrs followed by DCFH-DA addition for 30 mins and further incubated with compound and measured after 30 mins by DCFH-DA dye based fluorescence microplate reader analysis; type: functional, cell-based; details: dose 3-10 µM
[3] = system: Mus musculus; assay: Neuroprotective activity against 6-OHDA-induced lesioned C57 mouse model of Parkinson's disease assessed as improvement of poor balance administered via right striatum and measured after 14 days by rotarod test; type: functional, organism-based; details: time 14.0 day
[4] = system: Mus musculus; assay: Neuroprotective activity against 6-OHDA-induced lesioned C57 mouse model of Parkinson's disease assessed as reduction in weight loss administered via right striatum and measured after 14 days; type: functional, organism-based; details: time 14.0 day
[5] = system: Mus musculus; assay: Neuroprotective activity against 6-OHDA-induced lesioned C57 mouse model of Parkinson's disease assessed as reduction of dopaminergic neuronal damage at 2.7 ug administered via right striatum and measured after 21 days; type: functional, organism-based; details: dose 2.7 µg, time 21.0 day
[6] = system: Mus musculus; assay: Neuroprotective activity against 6-OHDA-induced lesioned C57 mouse model of Parkinson's disease assessed as improvement of weakened grip administered via right striatum and measured after 14 days by rotarod test; type: functional, organism-based; details: time 14.0 day
[7] = system: Mus musculus; assay: Neuroprotective activity against 6-OHDA-induced lesioned C57 mouse model of Parkinson's disease assessed as reduction in ipsilateral dopaminergic neuron damage in caudate putamen nucleus of brain administered via right striatum and measured after 21 days by immunofluorescence staining analysis; type: functional, organism-based; details: time 21.0 day
[8] = Toxicity in C57 mouse assessed as effect on survival of ipsilateral dopaminergic neuron in substantia nigra pars reticulate of brain administered via right striatum and measured after 21 days by immunofluorescence staining analysis; details: in vivo, other, 504 h, time 21 day
[9] = system: Mus musculus; assay: Neuroprotective activity against 6-OHDA-induced lesioned C57 mouse model of Parkinson's disease assessed as reduction in apomorphine-induced contralateral rotation by measuring decrease in turn number preadministered with compound for 14 days via right striatum and measured 30 mins after apomorphine addition by videotaping analysis relative to control; type: functional; parameters: scale not given: the % may be the effect or the level left; details: time 336.5 hrs
[10] = Toxicity in C57 mouse assessed as effect on survival of ipsilateral dopaminergic neuron in caudate putamen nucleus of brain administered via right striatum and measured after 21 days by immunofluorescence staining analysis; details: in vivo, other, 504 h, time 21 day
[11] = Toxicity in C57 mouse assessed as effect on time spend in rod administered via right striatum and measured after 14 days by rotarod test; details: in vivo, other, 336 h, time 14 day
[12] = Cytotoxicity against human SH-SY5Y cells assessed as cell viability at 100 uM incubated for 48 hrs by CCK-8 assay relative to control; type: toxicity, cell-based; details: read-out: Activity
[13] = system: Mus musculus; assay: Neuroprotective activity against 6-OHDA-induced lesioned C57 mouse model of Parkinson's disease assessed as protection of dopaminergic neuronal damage administered via right striatum and measured after 21 days; type: functional, organism-based; details: time 21.0 day
[14] = system: H4; assay: as §2, with “as” for “as reduction in”, “scavenging at 10 uM” for “generation ratio”, “analysis relative to control” for “analysis”; type: functional; details: 0.5 h
[15] = system: Mus musculus; assay: as §1, with “substantia nigra pars reticulate” for “caudate putamen nucleus”, “9.7” for “11.5”; type: functional; details: time 21 day
[16] = Cytotoxicity against human H4 cells assessed as cell viability at 100 uM incubated for 48 hrs by CCK-8 assay relative to control; type: toxicity, cell-based; details: read-out: Activity
[17] = system: Mus musculus; assay: Neuroprotective activity against 6-OHDA-induced lesioned C57 mouse model of Parkinson's disease assessed as improvement of stiff limbs administered via right striatum and measured after 14 days by rotarod test; type: functional, organism-based; details: time 14.0 day
[18] = system: H4; assay: Antioxidant activity in H2O2-induced human H4 cells assessed as reduction in endogenous ROS level by measuring green fluorescence preincubated with H2O2 for 3 hrs followed by compound addition and measured after 30 mins by flow cytometric analysis; type: functional, cell-based
[19] = system: H4; assay: Antioxidant activity in H2O2-induced human H4 cells assessed as reduction in exogenous ROS level by measuring dark green fluorescence preincubated with H2O2 for 3 hrs followed by compound addition and measured after 30 mins by flow cytometric analysis; type: functional, cell-based

SMILES | Activity [2] | viability at 48 h, 100 µM [12] | Activity [14] | viability at 48 h, 100 µM [16] | further results
O=C(/C=C/c1cc(O)ccc1O)Nc1ccc(NC(=O)/C=C/c2cc(O)ccc2O)cc1 | Dose-Dependent Effect | > 85% | 70% | > 85% | Flu intensity [1]: 66.2%; Activity [3]: Active; Activity [4]: Active; Activity [5]: Active; Activity [6]: Active; Activity [7]: Active; Activity [8]: Non-Toxic; Activity [9]: 87%; Activity [10]: Non-Toxic; Time [11]: 264 s; Activity [13]: Dose-Dependent Effect; Flu intensity [15]: 65.1%; Activity [17]: Active
O=C1C=CC(=O)C(/C=C/C(=O)Nc2ccc(NC(=O)c3ccc(F)cc3)cc2)=C1 | Dose-Dependent Effect | > 85% | 70% | > 85% | –
O=C1C=CC(=O)C(/C=C/C(=O)Nc2ccc(NC(=O)c3ccc(F)cc3F)cc2)=C1 | Dose-Dependent Effect | > 85% | – | > 85% | Activity [18]: Active; Activity [19]: Active
O=C(/C=C/c1ccc(O)c(O)c1)Nc1ccc(NC(=O)c2ccc(F)cc2)cc1 | Dose-Dependent Effect | – | 70% | – | –
O=C(/C=C/c1cc(O)ccc1O)Nc1ccc(NC(=O)c2ccc(F)cc2F)cc1 | Dose-Dependent Effect | > 85% | – | > 85% | Activity [18]: Active; Activity [19]: Active
O=C1C=CC(=O)C(/C=C/C(=O)Nc2ccc(NC(=O)c3ccc(F)c(F)c3)cc2)=C1 | Dose-Dependent Effect | > 85% | – | > 85% | –
O=C(/C=C/c1cc(O)ccc1O)Nc1ccc(NC(=O)c2ccc(O)cc2)cc1 | Dose-Dependent Effect | > 85% | 70% | > 85% | –

Reference: ChEMBL document CHEMBL5346876, “Hybrids of polyphenolic/quinone acids, the potential preventive and therapeutic drugs for PD: Disaggregate α-Syn fibrils, inhibit inclusions, and repair damaged neurons in mice” (Eur J Med Chem, 2023)
